Results taken from patent US8716252B2, “(Methylsulfonyl) ethyl benzene isoindoline derivatives and their pharmaceutical uses” (Celgene Corporation, priority 2009, dated 2014).

Q: Which melting point does the source give for CCOc1cc([C@@H](CS(C)(=O)=O)N2Cc3cccc(N)c3C2=O)ccc1OC [Example 5.5, 7-amino-2-[(1S)-1-(3-ethoxy-4-methoxy-phenyl)-2-methanesulfonyl-ethyl]-2,3-dihydro-isoindol-1-one] here?
A: 135 to 137 °C
